In patent US20130102631A1, “NOVEL MICROBIOCIDAL DIOXIME ETHER DERIVATIVES” (SYNGENTA CROP PROTECTION LLC, priority 2010, published 2013):

Key:
[1] = tested on: Mycosphaerella arachidis (Cercospora arachidicola); experiment: Mycosphaerella arachidis (Cercospora arachidicola) / liquid culture (early leaf spot); format: cell-based; conditions: at ≦200 ppm, liquid culture PDB, inhibition of growth photometrically 4-5 days after application, read-out: control of Mycosphaerella arachidis
Method: Mycosphaerella arachidis (Cercospora arachidicola)/Liquid Culture (Early Leaf Spot): Conidia of the fungus from cryogenic storage were directly mixed into nutrient broth (PDB potato dextrose broth). After placing a DMSO solution of test compound into a 96-well microtiter plate, the nutrient broth containing the fungal spores was added. The test plates are incubated at 24° C. and the inhibition of growth was determined photometrically 4-5 days after application. […]-2.509; 5.561; 2.561; P.57; 2.513; 2.559; 2.558; 2.557; 2.556; 2.555; 2.374; 2.553; 2.552; 2.551 (fraction B); 2.551 (fraction A); 2.544; 2.541; 2.539; 2.537; 2.536; 2.533; 2.532; 2.531; 2.530; 2.528; 2.526; 2.525 (fraction B); 2.525 (fraction A); 2.524; 2.520; 2.519; 2.510; 2.518; 2.517; 2.516; 2.514; […].002; 2.512; 2.511; 2.514

[2] = tested on: Mycosphaerella graminicola (Septoria tritici); experiment: Mycosphaerella graminicola (Septoria tritici) / liquid culture (Septoria blotch); format: cell-based; conditions: Zymoseptoria tritici; at ≦200 ppm, liquid culture PDB, inhibition of growth photometrically 4-5 days after application; read-out: control of Mycosphaerella graminicola
Gaeumannomyces graminis = Gaeumannomyces graminis / liquid culture (take-all of cereals); format: cell-based; conditions: at ≦200 ppm, liquid culture PDB, inhibition of growth photometrically 4-5 days after application, read-out: control of Gaeumannomyces graminis
Method: Gaeumannomyces graminis/Liquid Culture (Take-All of Cereals): Mycelial fragments of the fungus from cryogenic storage were directly mixed into nutrient broth (PDB potato dextrose broth). After placing a DMSO solution of test compound into a 96-well microtiter plate, the nutrient broth containing the fungal spores is added. The test plates were incubated at 24° C. and the inhibition of growth was determined photometrically 4-5 days after application. […]-2.509; 5.561; 2.561; P.57; 2.513; 2.559; 2.558; 2.557; 2.556; 2.555; 2.374; 2.553; 2.552; 2.551 (fraction B); 2.551 (fraction A); 2.539; 2.533; 2.528; 2.526; 2.525 (fraction B); 2.525 (fraction A); 2.524; 2.523; 2.521; 2.520; 2.519; 2.510; 2.518; 2.516; 2.514; E/E-5.167; E/E-3.002; 2.512; E/E-2.508

[3] = tested on: Monographella nivalis (Microdochium nivale); experiment: Monographella nivalis (Microdochium nivale) / liquid culture (foot rot cereals); format: cell-based; conditions: at ≦200 ppm, liquid culture PDB, inhibition of growth photometrically 4-5 days after application, read-out: control of Monographella nivalis
Method: Monographella nivalis (Microdochium nivale)/Liquid Culture (Foot Rot Cereals): Conidia of the fungus from cryogenic storage were directly mixed into nutrient broth (PDB potato dextrose broth). After placing a DMSO solution of test compound into a 96-well microtiter plate, the nutrient broth containing the fungal spores was added. The test plates were incubated at 24° C. and the inhibition of growth was determined photometrically 4-5 days after application. […].57; 2.513; 2.559; 2.558; 2.556; 2.555; 2.374; 2.553; 2.551 (fraction B); 2.551 (fraction A); 2.548; 2.544; 2.542; 2.541; 2.539; 2.536; 2.535; 2.533; 2.530; 2.528; 2.526; 2.525 (fraction B); 2.525 (fraction A); 2.524; 2.519; 2.518; 2.516; 2.514; E/E-5.167; 2.512; 2.514

[4] = tested on: Blumeria graminis f. sp. tritici (Erysiphe graminis f. sp. tritici); experiment: Blumeria graminis f. sp. tritici / wheat / leaf disc preventative (powdery mildew on wheat); format: in vivo; conditions: foliar, wheat leaf segments cv. Kanzler, inoculated 1 day after application, assessed 6-8 days after application
Method: Blumeria graminis f. sp. tritici (Erysiphe graminis f. sp. tritici)/Wheat/Leaf Disc Preventative (Powdery Mildew on Wheat):
Wheat leaf segments cv. Kanzler were placed on agar in a 24-well plate and sprayed with the formulated test compound diluted in water at an application rate of 200 ppm. The leaf disks were inoculated by shaking powdery mildew infected plants above the test plates 1 day after application. The inoculated leaf disks were incubated at 20° C. and 60% relative humidity under a light regime of 24 h darkness followed by 12 h/12 h (dark/light) in a climate chamber and the activity of a compound was assessed as percent disease control compared to untreated when an appropriate level of disease damage appears on untreated check leaf segments (6-8 days after application). The following compounds gave at least 80% control of Blumeria graminis: E/E-2.168, E/E-2.474, E/E-2.002; 5.561; 2.561; E/E-2.208; 2.513; 2.559; 2.557; 2.556; 2.555; 2.374; 2.552; 2.537; 2.533; 2.530; 2.528; 2.526; 2.519; 2.510; 2.516; 2.514; E/E-5.167; E/E-3.002; 2.512; 2.511

Glomerella lagenarium = Glomerella lagenarium (Colletotrichum lagenarium) / liquid culture (anthracnose); format: cell-based; conditions: Colletotrichum orbiculare; at ≦200 ppm, liquid culture PDB, inhibition of growth photometrically 3-4 days after application; read-out: control of Glomerella lagenarium
Method: Glomerella lagenarium (Colletotfichum lagenarium)/Liquid Culture (Anthracnose): Conidia of the fungus from cryogenic storage were directly mixed into nutrient broth (PDB potato dextrose broth). After placing a DMSO solution of test compound into a 96-well microtiter, the nutrient broth containing the fungal spores was added. The test plates were incubated at 24° C. and the inhibition of growth is measured photometrically 3-4 days after application. […]-2.509; 5.561; 2.561; E/E-2.208; P.57; 2.513; 2.559; 2.556; 2.555; 2.374; 2.552; 2.548; 2.544; 2.541; 2.540; 2.539; 2.537; 2.536; 2.533; 2.531; 2.530; 2.528; 2.526; 2.519; 2.510; 2.516; 2.514; E/E-5.167; E/E-3.002; 2.512; 2.514; Z/E-2.474

[5] = tested on: Phaeosphaeria nodorum (Septoria nodorum); experiment: Phaeosphaeria nodorum (Septoria nodorum) / wheat / leaf disc preventative (glume blotch); format: in vivo; conditions: Parastagonospora nodorum, foliar, wheat leaf segments cv Kanzler, inoculated 2 days after application, assessed 5-7 days after application
Method: Phaeosphaeria nodorum (Septoria nodorum)/Wheat/Leaf Disc Preventative (Glume Blotch): Wheat leaf segments cv Kanzler were placed on agar in a 24-well plate and sprayed with formulated test compound diluted in water at an application rate of 200 ppm. The leaf disks are inoculated with a spore suspension of the fungus 2 days after application. The inoculated test leaf disks are incubated at 20° C. and 75% relative humidity under a light regime of 12/12 h (light/dark) in a climate cabinet and the activity of a compound is assessed as percent disease control compared to untreated when an appropriate level of disease damage appears in untreated check leaf disks (5-7 days after application). […]-2.508; 5.561; 2.561; E/E-2.208; P.57; 2.513; 2.559; 2.558; 2.557; 2.556; 2.555; 2.374; 2.544; 2.541; 2.539; 2.537; 2.536; 2.535; 2.533; 2.530; 2.526; 2.519; 2.510; 2.516; 2.514; E/E-5.167; E/E-3.002; 2.512

Structure (SMILES) | inhibition of growth at up to 200 µg/mL [1] | inhibition of growth at up to 200 µg/mL [2] | inhibition of growth at up to 200 µg/mL (Gaeumannomyces graminis) | inhibition of growth at up to 200 µg/mL [3] | pest or weed control at 200 ppm [4] | inhibition of growth at up to 200 µg/mL (Glomerella lagenarium) | pest or weed control at 200 ppm [5]
C/C(=N\OCC(C)(C)CO/N=C1\CCCc2ccc(C)nc21)c1ncc(C(F)(F)F)cc1Cl (single isomer, unassigned) [2.551 (fraction B)] | ≥ 80% | ≥ 80% | ≥ 80% | ≥ 80% | – | – | –
Cc1ccc2c(n1)/C(=N/OCC(C)(C)CON=C(c1ccccn1)c1ccccn1)CCC2 [Compound 2.511] | ≥ 80% | – | – | – | ≥ 80% | – | –
COC(=O)C/C(=N/OCC(C)(C)CO/N=C1\CCCc2ccc(C)nc21)c1ncc(Cl)cc1F [Compound 2.518] | ≥ 80% | – | ≥ 80% | ≥ 80% | – | – | –
Cc1ccc2c(n1)/C(=N/OCC(C)(C)CO/N=C(/c1ccccn1)c1ncc(C(F)(F)F)cc1Cl)CCC2 [Compound 2.520] | ≥ 80% | – | ≥ 80% | – | – | – | –
Cc1ccc2c(n1)/C(=N/OCC(C)(C)CO/N=C(/c1ccccc1)c1ncc(C(F)(F)F)cc1Cl)CCC2 [Compound 2.521] | – | – | ≥ 80% | – | – | – | –
CCOC(=O)c1ccc(/C(C)=N\OCC(C)(C)CO/N=C2\CCCc3ccc(C)nc32)nc1C(F)(F)F [Compound 2.523] | – | – | ≥ 80% | – | – | – | –
CC/C(=N/OCC(C)(C)CO/N=C1\CCCc2ccc(C)nc21)c1ccc(C(F)(F)F)cn1 [Compound 2.524] | ≥ 80% | – | ≥ 80% | ≥ 80% | – | – | –
C/C(=N\OCC(C)(C)CO/N=C1\CCCc2ccc(C)nc21)c1cc(C#N)ccn1 [Compound 2.531] | ≥ 80% | ≥ 80% | – | – | – | ≥ 80% | –
Cc1ccc2c(n1)/C(=N/OCC(C)(C)CO/N=C(\c1ccc(Cl)cc1)c1ccccn1)CCC2 [Compound 2.532] | ≥ 80% | ≥ 80% | – | – | – | – | –
CSc1nc(/C=N/OCC(C)(C)CO/N=C2\CCCc3ccc(C)nc32)ccc1C#N [Compound 2.535] | – | ≥ 80% | – | ≥ 80% | – | – | ≥ 80%
C/C(=N\OCC(C)(C)CO/N=C1\CCCc2ccc(C)nc21)c1cccc(C#N)n1 [Compound 2.536] | ≥ 80% | ≥ 80% | – | ≥ 80% | – | ≥ 80% | ≥ 80%
Cc1ccc2c(n1)/C(=N/OCC(C)(C)CO/N=C(/c1cccc(Br)n1)c1ccccc1C)CCC2 [Compound 2.539] | ≥ 80% | ≥ 80% | ≥ 80% | ≥ 80% | – | ≥ 80% | ≥ 80%
COC(=O)c1ccc(C(F)(F)F)nc1/C(C)=N/OCC(C)(C)CO/N=C1\CCCc2ccc(C)nc21 [Compound 2.540] | – | ≥ 80% | – | – | – | ≥ 80% | –
C/C(=N\OCC(C)(C)CO/N=C1\CCCc2ccc(C)nc21)c1cc(C(C)(C)C)ccn1 [Compound 2.541] | ≥ 80% | ≥ 80% | – | ≥ 80% | – | ≥ 80% | ≥ 80%
Cc1ccc2c(n1)/C(=N/OCC(C)(C)CO/N=C(/c1ncc(Cl)cc1Cl)C(C)C)CCC2 [Compound 2.542] | – | ≥ 80% | – | ≥ 80% | – | – | –
Cc1ccc2c(n1)/C(=N/OCC(C)(C)CO/N=C(\c1ncc(Cl)cc1F)C(C)Cl)CCC2 (stereo not drawn) [Compound 2.545] | – | ≥ 80% | – | – | – | – | –
C/C(=N\OCC(C)(C)CO/N=C1\CCCc2ccc(C)nc21)c1ncc(Cl)cc1O [Compound 2.548] | – | ≥ 80% | – | ≥ 80% | – | ≥ 80% | –
CC/C(=N\OCC(C)(C)CO/N=C1\CCCc2ccc(C)nc21)c1ncc(Cl)cc1Cl [Compound 2.549] | – | ≥ 80% | – | – | – | – | –
Cc1cc(C)nc(C(=NOCCCO/N=C2\CCCc3ccc(C)nc32)c2cc(C)cc(C)n2)c1 [Compound 2.557] | ≥ 80% | – | ≥ 80% | – | ≥ 80% | – | ≥ 80%
C/C(=N\OCC(C)(C)CO/N=C1\CCCc2ccc(C)nc21)c1ncc(Cl)cc1F [E/E-2.509] | ≥ 80% | ≥ 80% | ≥ 80% | ≥ 80% | – | ≥ 80% | –
Cc1cccc(/C(=N\OCC(C)(C)CO/N=C2\CCCc3ccc(C)nc32)c2ccccc2)n1 [Z/E-2.474] | ≥ 80% | – | – | – | – | ≥ 80% | –
